Results on two compounds are retold here after article PMC3674958 (Investigational new drugs, 2012).

Structures are written as SMILES.

A short description of data set [1]: Plasma pharmacokinetics of irinotecan and its metabolites. To be noted: human, iv.
The next data set concerns plasma proteins. As to the kind of experiment: Sorafenib fraction unbound in patient plasma by equilibrium dialysis. The class given is in vitro ADME. Conditions: human.
A short description of a further data set: clinical. To be noted: human, in vivo, 400 mg.

Take `CCc1c2c(nc3ccc(OC(=O)N4CCC(N5CCCCC5)CC4)cc13)-c1cc3c(c(=O)n1C2)COC(=O)[C@]3(O)CC` [Irinotecan]: the Tmax in data set [1] (100 mg/m2) and in data set [1] (120 mg/m2) was 1.4 h each time.

`CNC(=O)c1cc(Oc2ccc(NC(=O)Nc3ccc(Cl)c(C(F)(F)F)c3)cc2)ccn1` [Sorafenib, reference compound]: the fraction unbound (in general, the share of the substance not bound to proteins or other matrix) in the data set on plasma proteins was in the range of 0.0027 to 0.0067. The Cmax – broadly, the highest concentration seen after dosing – in “clinical” (Cmax) worked out at 4710 ± 3520 ng/mL. Besides, the Tmax (as a rule, the time from dosing to the highest level) in the data set “clinical” (Tmax) was determined as 4.1 h.
